From US20240317833A1, “NON-HLA RESTRICTED T CELL VACCINE FOR TCR GAMMA ALTERNATE READING FRAME PROTEIN (TARP) PROTEIN EXPRESSING CANCERS” (PDS BIOTECHNOLOGY CORPORATION, priority 2022, published 2024)
No end group written: not given here.

System: TARP antigen-specific T cells
Assay: IFN-γ ELISPOT on splenocytes of vaccinated HLA-A2 transgenic (AAD) mice, s.c. day 0 and day 7
Format: in vivo, HLA-A2 expressing transgenic mice (AAD mice)
Conditions: for response when used as a stimulatory peptide for the ELISPOT: HLA-A2 transgenic mouse model; for TARP 21-40 ELISPOT responses: FIG. 8; for TARP 29-37 (9V) ELISPOT responses: encapsulated in R-DOTAP nanoparticles, stimulatory peptide TARP 29-37 (9V) in water/sucrose
[1] = FIG. 5, formulated in CFA, stimulatory peptide TARP 27-35 (SEQ ID NO:2), antigen dose 100 micrograms
[2] = FIG. 6, formulated with R-DOTAP nanoparticles, stimulatory peptide SEQ ID NO:3 (9V), antigen dose 100 micrograms
[3] = FIG. 7, formulated with R-DOTAP nanoparticles, stimulatory peptide TARP 21-40 (SEQ ID NO:6), antigen dose 100 micrograms
[4] = formulated with R-DOTAP nanoparticles, two immunizations, stimulatory peptide TARP 21-40 (17V) in water/sucrose

Row | Substance | antigen-specific ELISPOT responses [1] | antigen-specific ELISPOT responses [2] | antigen-specific ELISPOT responses [3] | TARP 21-40 ELISPOT responses [4] | TARP 29-37 (9V) ELISPOT responses (FIG. 9, two immunizations) | also measured
1 | FVFLRNFSL (not fully specified) [SEQ ID NO:2] |  |  |  |  |  | response when used as a stimulatory peptide for the ELISPOT (FIG. 5): apparently inactive
2 | KSS-RRLEHTFVFLRNFSLMLLRG (not fully specified; palmitoylated; SITE 1 Palmitoyl modified residue) [SEQ ID NO:13, palmitoylated TARP 6 (21-40)] | no antigen-specific ELISPOT responses | no antigen-specific ELISPOT responses | no or very weak antigen-specific ELISPOT responses | no or very weak TARP 21-40 ELISPOT responses |  | antigen-specific ELISPOT responses (FIG. 6, formulated in CFA, stimulatory peptide SEQ ID NO:3 (9V), antigen dose 100 micrograms): no antigen-specific ELISPOT responses; antigen-specific ELISPOT responses (FIG. 7, formulated in CFA, stimulatory peptide TARP 21-40 (SEQ ID NO:6), antigen dose 100 micrograms): no or very weak antigen-specific ELISPOT responses
3 | RRLEHTFVFLRNFSLMLLRG (not fully specified) [SEQ ID NO:6] | no antigen-specific ELISPOT responses | no antigen-specific ELISPOT responses | no or very weak antigen-specific ELISPOT responses | no or very weak TARP 21-40 ELISPOT responses | did not appear to elicit any TARP 29-37 (9V) ELISPOT responses | response when used as a stimulatory peptide for the ELISPOT (FIG. 7): inactive or very weakly active; TARP 21-40 ELISPOT responses (Complete Freunds Adjuvant (CFA), stimulated with TARP 21-40 (SEQ ID NO:6)): very weakly active
4 | KSS-FLRNFSLMV (not fully specified; palmitoylated; SITE 1 Palmitoyl modified residue) [SEQ ID NO:10, palmitoylated TARP 2 (29-37)] | no antigen-specific ELISPOT responses |  |  |  |  | 
5 | FLRNFSLMV (not fully specified) [SEQ ID NO:3] |  | no antigen-specific ELISPOT responses | no or very weak antigen-specific ELISPOT responses | no or very weak TARP 21-40 ELISPOT responses | did not appear to elicit any TARP 29-37 (9V) ELISPOT responses | response when used as a stimulatory peptide for the ELISPOT (FIG. 6): apparently inactive; ELISPOT responses to TARP 29-37 (9V) (FIG. 9, Complete Freund's Adjuvant (CFA), stimulatory peptide TARP 29-37 (9V)): Very weak or no ELISPOT responses
6 | SSEEEDE-RRLEHTFVFLRNFSLMLLRG (SSEEEDERRLEHTFVFLRNFSLMLLRG; Anionic amino acids) [SEQ ID NO:21] | no antigen-specific ELISPOT responses | no antigen-specific ELISPOT responses | no or very weak antigen-specific ELISPOT responses | no or very weak TARP 21-40 ELISPOT responses |  | mice responding to vaccination (FIG. 7, R-DOTAP nanoparticles, antigen dose 100 micrograms): two of six
